“Also recorded” adds a separate entry of the source. Where a SMILES comes first, the peptide text is derived from it. Bridges are numbered along the chain shown (N, C = ends). [ ]: non-standard residue; d: D form. Cha = N[C@@H](CC1CCCCC1)C(=O)O
Tests used:
[1] = Circular dichroism helicity of peptide in isolation (homotypic); format: physicochemical; conditions: for Homotypic Ɵ222/208 (20ºC): CD ratio, 20 °C; for Homotypic Ɵ222/208 (20ºC) / Fraction helical (ƒH), homotypic: peptide in isolation; for Fraction helical (ƒH), homotypic: from CD molar residue ellipticity at 222 nm
Description: (§1) Circular dichroism (CD) spectroscopy was conducted with an Applied Photophysics Chirascan CD spectroploarimeter (Leatherhead, U.K.) using a 200 µL sample in a CD cell with a 1 mm path length (Hellma, Müllheim Germany). Samples contained 150 µM total peptide concentration suspended in 10 mM potassium phosphate and 100 mM potassium fluoride at pH 7. The CD spectra of the homodimeric and heterodimeric complexes were scanned between 300 nm and 190 nm at 20°C (for both pre- and post-melt samples to check for reversibility of unfolding) and at −8°C to assess helical levels and coiled-coil structure (see Figure 4).
(§2) Supplementary file pone.0059415.s005.doc: Table S1 Helical Data obtained via Circular Dichroism. Shown are A) homo and B) heteromeric samples. […] A ratio higher than 1 is generally indicated evidence that a coiled coil has formed, while a ratio of less than 0.9 is taken to indicate the presence of isolated helices. Shown in column two are the calculated fractional helicities taken from the Molar Residue Ellipticity at […]. Fraction helicity (ƒH) can be calculated as ƒH = (θ222−θc)/(θ222∞−θc) where θ222∞ = (−44000+250*T)*(1−k/Nr) and θc = 2220–(53*T). In these equations the wavelength dependent constant k = 2.4 (at 222 nm), Nr = the number of residues, and T = 20 degrees Celsius (293 K). The 222/208 ratio is used to provide evidence on whether the helices are monomeric or are adopting a quaternary structure. Measured helicity for the original JunWCANDI peptide and for the template on which the hydrocarbon constraints have been introduced. […] The N- and C-capping motifs have been removed for the constrained since they are considered to be largely redundant upon their introduction. (DOC) Click here for additional data file.

cFos [2] = target: T1, cFos (Homo sapiens, UniProt P01100); assay: Circular dichroism spectra of peptide-cFos mixtures; format: binding; conditions: mixture with cFos; for Peptide-cFos Ɵ222/208 (20ºC): CD ratio, 20 °C; for Peptide-cFos Fraction helical (ƒH): CD 222 nm, 20°C, 150 µM total peptide
T1 sequence (P01100 whole entry): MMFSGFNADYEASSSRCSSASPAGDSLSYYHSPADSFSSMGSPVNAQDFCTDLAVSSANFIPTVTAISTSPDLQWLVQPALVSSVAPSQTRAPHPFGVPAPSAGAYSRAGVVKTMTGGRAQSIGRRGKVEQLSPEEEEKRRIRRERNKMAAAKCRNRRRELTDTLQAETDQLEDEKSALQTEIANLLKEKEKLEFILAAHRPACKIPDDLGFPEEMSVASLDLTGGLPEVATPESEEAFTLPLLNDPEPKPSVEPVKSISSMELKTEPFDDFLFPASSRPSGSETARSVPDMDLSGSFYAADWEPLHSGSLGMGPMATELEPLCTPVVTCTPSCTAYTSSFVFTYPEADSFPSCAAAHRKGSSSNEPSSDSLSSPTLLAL
Description: as §1
(§3) Thermal denaturation data and spectra for the cFos homotypic complex (black), helix constrained peptide (blue), and heteromeric complex (red) were recorded using 200 µL of sample at 150µM total peptide concentration (Figure 4, Figure S1). Next, 100 µL of each solution was mixed and the spectra taken such that the final total peptide concentration was also 150 µM. More experimental procedures can be found in File S1.
as §2

cJun = assay: CD spectra and thermal denaturation of peptide-cJun mixtures (specificity); format: binding; conditions: equimolar with cJun
Description: (§4) To establish if the truncated and constrained peptides retained the interaction specificity of the JunWCANDI parent peptide, peptides capable of interacting with cFos were also incubated at equimolar concentrations with cJun and monitored via CD spectra. […] In addition, a dimer exchange experiment was performed for the most helical peptide 24. Spectra for a cJun-peptide solution and a cFos solution should, upon mixing, generate an averaged spectrum if there was no dimer exchange. […] Spectra for both mixtures can be superimposed (Figure S4).
Supplementary file pone.0059415.s002.tiff: Figure S2 Raw thermal melting data for homo and heterodimeric complexes with cJun for constrained peptides 1 , 2 , 8 , 9, 10 , 11, 12, 17, 20, 22, and 24 . […] (TIFF) Click here for additional data file.
Supplementary file pone.0059415.s003.tiff: Figure S3 CD spectra as MRE both in isolation and as a mixture with cJun. From these raw data it is also clear that no interaction is occurring between constrained peptides and cJun. Rather, specta appear as averages of their homodimeric components (i.e. superimpose with the homomeric averages). We observe no heteromeric helical signal (red) that exceeds the average (black dotted line) of cJun (black) and the constrained peptide (blue), that would be anticipated for a non-interacting pair. (TIFF) Click here for additional data file.
Supplementary file pone.0059415.s005.doc: Table S1 Helical Data obtained via Circular Dichroism. Shown are A) homo and B) heteromeric samples. […] A ratio higher than 1 is generally indicated evidence that a coiled coil has formed, while a ratio of less than 0.9 is taken to indicate the presence of isolated helices. Shown in column two are the calculated fractional helicities taken from the Molar Residue Ellipticity at […]. Fraction helicity (ƒH) can be calculated as ƒH = (θ222−θc)/(θ222∞−θc) where θ222∞ = (−44000+250*T)*(1−k/Nr) and θc = 2220–(53*T). […] Measured helicity for the original JunWCANDI peptide and for the template on which the hydrocarbon constraints have been introduced. […]

cFos [3] = target: T1, cFos; assay: Thermal denaturation (CD at 222 nm) of peptide-cFos mixtures; format: binding; conditions: judged from thermal denaturation profiles and CD spectra of mixtures with cFos
Description: as §3

Serum stability = format: in vitro ADME; conditions: 200 µL of 1 mg/ml peptide in water added to 800 µL human serum, 37°C, aliquots 0-24 h, acetonitrile/water 3:1, LC-MS-MS total ion counts
Description: Stock solutions of 12 and 24 in both constrained forms and linear forms lacking constraints were prepared in water (1 mg/ml), 200 µL was added to human serum (800 µL) and incubated at 37°C. Aliquots (100 µL) of this diluted serum were removed at 0, 0.5, 1, 2, 4, 16, and 24 hours and a mixture of acetonitrile/water 3∶1 (300 µL) was added to each aliquot before centrifuging (17000 rpm, 15 min). Aliquots (100 µL) of the supernatant were then analysed by LC-MS-MS after passing through a 2.1×150 mm Phenomenex 300A C18 5 µm column at 10% per minute linear gradient from 0–100% acetonitrile over 12 minutes. The amount of starting material was quantified by determination of total ion counts for the m/3+ and m/4+ ion for each peptide (Figure 3).

cFos [4] = target: T1, cFos; assay: Dimer exchange experiments between cJun, cFos and constrained peptide (CD spectra); format: binding; conditions: equimolar mixtures, CD spectra compared with average of constituent spectra
Description: as §4
(TIFF) Click here for additional data file.

cFos [5] = target: T1, cFos; assay: Isothermal Titration Calorimetry (ITC) of peptides with cFos; format: binding; conditions: 20°C
Description: Figure 5 Isothermal Titration Calorimetry (ITC) analysis of leucine zipper domain interactions between constrained peptides and cFos. Shown are isotherms for all ten measureable heterodimers (1, 2, 8, 10, 11, 12, 17, 20, 22, and 24) injected into a cell containinginto cFos. The top and bottom panels show, respectively, raw data after baseline correction. During ITC experiments, approximately 200–600 µM of peptide A was injected in 30–40×5 µl batches from the injection syringe into the cell, which contained 10–40 µM cFos. Both partners were in a 10 mM Potassium Phosphate buffer, 100 mM Potassium Fluoride at pH 7. Experiments were undertaken at 20°C. […]
ITC Measurements - ITC measurements were made using a Microcal VP-ITC instrument with data collected and processed using the Origin 7.0 software package. […] The change in thermal power as a function of each injection was automatically recorded using the Microcal Origin software and the raw data were integrated to yield ITC isotherms of heat release per injection as a function of Fos to Jun Molar ratio (Figure 5). […]
where R is the universal molar gas constant (1.9872 cal·K^-1·mol^-1), T is the absolute temperature in Kelvin (293.15 K) and KD is the dissociation constant of binding with units of mol·L^-1. Finally, the entropic contribution (TΔS) to the free energy of binding was calculated using the derived values of ΔH and ΔGbind.

Compound	Homotypic Ɵ222/208 (20ºC) [1]	Fraction helical (ƒH), homotypic ([1]; 20°C, 150 µM, pH 7)	Peptide-cFos Ɵ222/208 (20ºC) (cFos [2])	Peptide-cFos Fraction helical (ƒH) (cFos [2])	interaction with cJun (in words) (cJun)	interaction with cFos (in words) (cFos [3])	stability in human serum (Serum stability)	dimer exchange on mixing cFos-cFos with cJun-peptide (cFos [4])	dimer exchange on mixing cJun-cJun with cFos-peptide (cFos [4])	TΔS [ΔH – ΔG] (cFos [5]; calculated according to TΔS = ΔH−ΔG)	ΔH (cFos [5]; pH 7)	helicity of peptide in isolation ([1]; from CD spectra, 20°C, 150 µM, pH 7)
CC[C@H](C)[C@H](NC(=O)[C@H](Cc1c[nH]cn1)NC(=O)[C@@H]1CC(=O)NCCCC[C@H](NC(=O)[C@H](C)NC(=O)[C@H](CCCCN)NC(=O)[C@H](CO)NC(=O)[C@H](CCCNC(=N)N)NC(=O)[C@H](CC2CCCCC2)NC(=O)[C@@H]2CC(=O)NCCCC[C@H](NC(=O)[C@H](CCCCN)NC(=O)[C@H](CC(C)C)NC(C)=O)C(=O)N[C@@H](CCC(=O)O)C(=O)N[C@@H]([C@@H](C)CC)C(=O)N[C@@H](Cc3ccc(O)cc3)C(=O)N2)C(=O)N[C@@H](CCSC)C(=O)N[C@@H](CC(C)C)C(=O)N[C@@H](CCCNC(=N)N)C(=O)N1)C(=O)N[C@@H](C)C(=O)N[C@@H](CCC(N)=O)C(=O)N[C@@H](CC(C)C)C(N)=O [compound 17] (Ac-LKKEIYD[Cha]RSKAKMLRDHIAQL-NH2; lactam 3-7, 13-17)	0.91	0.42	0.90	0.40	none of the peptides form a stable interaction with cJun	–	–	–	–	–	–	–
CC[C@H](C)[C@H](NC(=O)[C@H](Cc1c[nH]cn1)NC(=O)[C@@H]1CC(=O)NCCCC[C@H](NC(=O)[C@H](C)NC(=O)[C@H](CCCCN)NC(=O)[C@H](CO)NC(=O)[C@H](CCCNC(=N)N)NC(=O)[C@H](CC(C)C)NC(=O)[C@@H]2CC(=O)NCCCC[C@H](NC(=O)[C@H](CCCCN)NC(=O)[C@H](CC3CCCCC3)NC(C)=O)C(=O)N[C@@H](CCC(=O)O)C(=O)N[C@@H]([C@@H](C)CC)C(=O)N[C@@H](Cc3ccc(O)cc3)C(=O)N2)C(=O)N[C@@H](CCSC)C(=O)N[C@@H](CC(C)C)C(=O)N[C@@H](CCCNC(=N)N)C(=O)N1)C(=O)N[C@@H](C)C(=O)N[C@@H](CCC(N)=O)C(=O)N[C@@H](CC1CCCCC1)C(N)=O [compound 20] (Ac-[Cha]KKEIYDLRSKAKMLRDHIAQ[Cha]-NH2; lactam 3-7, 13-17)	0.91	0.51	0.92	0.49	none of the peptides form a stable interaction with cJun	profiles consistent with a strong interaction affinity for cFos	–	–	–	–	–	–
CC[C@H](C)[C@@H]1NC(=O)[C@H](Cc2c[nH]cn2)NC(=O)[C@@H](NC(=O)[C@H](CCCNC(=N)N)NC(=O)[C@H](CC(C)C)NC(=O)[C@@H]2CC(=O)NCCCC[C@H](NC(=O)[C@H](CCCNC(=N)N)NC(=O)[C@H](CC(C)C)NC(=O)[C@@H]3CC(=O)NCCCC[C@H](NC(=O)[C@H](CCCNC(=N)N)NC(=O)[C@H](CC4CCCCC4)NC(C)=O)C(=O)N[C@@H](CCC(=O)O)C(=O)N[C@@H]([C@@H](C)CC)C(=O)N[C@@H](Cc4ccc(O)cc4)C(=O)N3)C(=O)N[C@@H](CCCCN)C(=O)N[C@@H](C)C(=O)N[C@@H](CC(N)=O)C(=O)N2)CCCCNC(=O)C[C@@H](C(=O)N[C@@H](CC2CCCCC2)C(N)=O)NC(=O)[C@H](C)NC1=O [compound 24, Ac-cyclo-(3,7; 10,14; 17,21)-ChaR[KEIYD]LR[KKAND]LR[KHIAD]Cha-NH2] (Ac-[Cha]RKEIYDLRKKANDLRKHIAD[Cha]-NH2; lactam 3-7, 10-14, 17-21)	1.08	0.69	1.00	0.52	none of the peptides form a stable interaction with cJun	–	resistant to proteolytic degradation in serum; also recorded: fairly stable in human serum over 4 h; also recorded: much more stable in human serum at 37° than the same peptide lacking the constraints	dimer exchange did occur; also recorded: dimer exchange has occurred	no change in binding partner for peptide had occurred; also recorded: no change has occurred	–	–	–
Ac-ASAAELEERAKTLKAEIYELRSKANMLREHIAQLGAP-NH2 [JunWCANDI, reference compound]	0.79	0.19	0.97	0.42	–	–	–	–	–	-6.9 kcal/mol	-14.8 kcal/mol	19%

— PMC3609778, “Truncated and Helix-Constrained Peptides with High Affinity and Specificity for the cFos Coiled-Coil of AP-1” (PLoS ONE, 2013)
